From paper PMC9496321, “6-Furopyridine Hexamethylene Amiloride Is a Non-Selective P2X7 Receptor Antagonist” (Biomolecules, 2022)

Legend:
[1] = test system: hP2X7-mediated IL-1β release; test: Whole blood IL-1β release assay; type: cell-based; details: 30 μM compound, 6 mM ATP, LPS-primed human whole blood
Protocol: Whole blood IL-1β release assays were conducted as described. Briefly, whole human blood was mixed with an equal volume of serum-free RPMI-1640 medium containing LPS (200 ng/mL), added to a flat-bottom 96-well plate and incubated (37 °C, 95% air/5% CO2, 105 min). Compounds (30 μM) or vehicle (DMSO) were added to respective wells and incubated (37 °C, 95% air/5% CO2, 15 min). […] Plates were centrifuged (700× g, 10 min) with the resulting supernatants collected and stored at −80 °C. hIL-1β concentrations were determined using a Human IL-1β ELISA (Thermo Fisher Scientific) according to the manufacturer’s instructions. Samples above the detection limit (7500 pg/mL) were set at 7500 pg/mL for statistical analysis.

P2X7 = target: T1, P2X7 (Homo sapiens, UniProt Q99572); test: Plate-based flow cytometric YO-PRO-1 dye uptake compound screen in RPMI8226 cells; type: cell-based; design: endogenous in cells; host or cells: RPMI8226 cells; details: RPMI8226 cells, plate-based screen
T1 sequence (Q99572 1-595): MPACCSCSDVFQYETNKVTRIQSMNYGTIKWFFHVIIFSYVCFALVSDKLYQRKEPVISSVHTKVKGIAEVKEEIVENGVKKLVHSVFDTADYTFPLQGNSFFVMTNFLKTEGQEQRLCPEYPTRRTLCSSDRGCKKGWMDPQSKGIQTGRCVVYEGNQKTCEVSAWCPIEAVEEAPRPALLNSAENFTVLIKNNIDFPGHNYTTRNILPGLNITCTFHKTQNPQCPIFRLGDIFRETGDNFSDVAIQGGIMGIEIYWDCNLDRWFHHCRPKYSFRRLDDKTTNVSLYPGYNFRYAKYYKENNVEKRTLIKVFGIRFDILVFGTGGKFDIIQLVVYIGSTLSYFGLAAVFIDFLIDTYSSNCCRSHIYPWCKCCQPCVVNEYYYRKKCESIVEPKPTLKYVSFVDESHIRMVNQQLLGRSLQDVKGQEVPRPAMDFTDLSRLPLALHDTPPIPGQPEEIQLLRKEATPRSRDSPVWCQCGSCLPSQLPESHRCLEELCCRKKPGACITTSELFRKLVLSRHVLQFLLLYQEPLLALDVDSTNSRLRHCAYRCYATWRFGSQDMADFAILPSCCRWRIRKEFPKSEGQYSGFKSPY
Protocol: RPMI8226 cells were washed thrice with low-divalent medium (LDM) (145 mM NaCl, 2 mM KCl, 0.2 mM CaCl2, 13 mM D-glucose and 10 mM HEPES, pH 7.5) and 1 × 10^5 cells were added to each well of a 96-well flat-bottomed plate. Amiloride derivatives, at 10 μM (final concentration 5 μM) or vehicle (DMSO) were added, and plates pre-incubated (37 °C, 15 min). […] Wells were washed twice with LDM (300× g, 5 min) and cells were resuspended in LDM. Data was acquired with an Attune NxT Flow Cytometer an Autosampler (Thermo Fisher Scientific). Mean fluorescent intensity (MFI) of YO-PRO-1^+ uptake was determined using FlowJo.

Compound	reduction of ATP-induced IL-1β compared to vehicle control [1] [%]	EC50 (P2X7) [µM]
N=C(N)NC(=O)c1nc(-c2cc3cnccc3o2)c(N2CCCCCC2)nc1N [6-FPHMA, 6-furopyridine-substituted 5-(N,N-hexamethylene) amiloride]	56 ± 15	
Nc1ncnc2c1ncn2[C@@H]1O[C@H](COP(=O)(O)OP(=O)(O)OP(=O)(O)O)[C@@H](O)[C@H]1O [ATP, adenosine 5′-triphosphate]		~250
